In brackets after ≈: the same amount, converted by molar mass.
Experiments:
Format in all cases: functional
[1] = tested on: Staphylococcus aureus; assay: Antibacterial activity against Staphylococcus aureus ATCC 25923 after 24 hrs by broth microdilution based CLSI method; details: ATCC 25923, 24 h
[2] = tested on: Bacillus subtilis; assay: Antibacterial activity against Bacillus subtilis ATCC 9372 after 24 hrs by broth microdilution based CLSI method; details: ATCC 9372, 24 h
[3] = tested on: Escherichia coli; assay: Antibacterial activity against Escherichia coli ATCC 25922 after 24 hrs by broth microdilution based CLSI method; details: ATCC 25922, 24 h
[4] = tested on: Staphylococcus aureus; assay: Antibacterial activity against clinical isolate of penicillin-resistant Staphylococcus aureus after 24 hrs by broth microdilution based CLSI method
[5] = tested on: Pseudomonas aeruginosa; assay: Antibacterial activity against Pseudomonas aeruginosa ATCC 27853 after 24 hrs by broth microdilution based CLSI method; details: ATCC 27853, 24 h
[6] = tested on: Bacillus pumilus; assay: Antibacterial activity against Bacillus pumilus CMCC63202 after 24 hrs by broth microdilution based CLSI method; details: CMCC63202, 24 h
[7] = tested on: Staphylococcus aureus; assay: Antibacterial activity against methicillin-resistant Staphylococcus aureus ATCC 43300 after 24 hrs by broth microdilution based CLSI method; details: ATCC 43300, 24 h

Row | Structure (SMILES) | MIC [1] [mg/L] | MIC [2] [mg/L] | MIC [3] [mg/L] | MIC [4] [mg/L] | MIC [5] [mg/L] | MIC [6] [mg/L] | MIC [7] [mg/L]
1 | NC(=O)c1c(F)ccc(OCc2cc(-c3ccc(Cl)cc3Cl)on2)c1F | > 64 | 0.5 (≈ 1.25 µM) | > 64 | > 64 | > 64 | 8 (≈ 20 µM) | > 64
2 | CCCCOc1cccc(-c2cc(COc3ccc(F)c(C(N)=O)c3F)on2)c1 | > 64 | 64 (≈ 159 µM) | > 64 | > 64 | > 64 | > 64 | > 64
3 | CCOc1ccc(-c2cc(COc3ccc(F)c(C(N)=O)c3F)on2)cc1 | > 64 | 1 (≈ 2.67 µM) | > 64 | > 64 | > 64 | > 64 | > 64
4 | Cc1c(COc2ccc(F)c(C(N)=O)c2F)noc1-c1ccc(C(C)(C)C)cc1 | > 64 | 0.5 (≈ 1.25 µM) | > 64 | > 64 | > 64 | 1 (≈ 2.5 µM) | > 64
5 | COc1ccc(-c2cc(COc3ccc(F)c(C(N)=O)c3F)no2)cc1 | > 64 | 64 (≈ 178 µM) | > 64 | > 64 | > 64 | > 64 | > 64
6 | NC(=O)c1c(F)ccc(OCc2cc(-c3ccc4c(c3)OCO4)no2)c1F | > 64 | 4 (≈ 10.7 µM) | > 64 | > 64 | > 64 | > 64 | > 64
7 | NC(=O)c1c(F)ccc(OCc2noc(-c3ccc(Cl)cc3)c2Br)c1F | > 64 | > 64 | > 64 | > 64 | > 64 | > 64 | > 64
8 | NC(=O)c1c(F)ccc(OCc2cc(-c3ccc(Br)cc3)no2)c1F | > 64 | 1 (≈ 2.44 µM) | > 64 | > 64 | > 64 | > 64 | > 64
9 | COc1cccc(-c2cc(COc3ccc(F)c(C(N)=O)c3F)on2)c1 | > 64 | 64 (≈ 178 µM) | > 64 | > 64 | > 64 | > 64 | > 64
10 | COc1ccccc1-c1cc(COc2ccc(F)c(C(N)=O)c2F)on1 | > 64 | > 64 | > 64 | > 64 | > 64 | > 64 | > 64
11 | CCCCCc1ccc(-c2cc(COc3ccc(F)c(C(N)=O)c3F)on2)cc1 | > 64 | 1 (≈ 2.5 µM) | > 64 | > 64 | > 64 | > 64 | > 64
12 | NC(=O)c1c(F)ccc(OCc2cc(-c3ccc(Cl)cc3)on2)c1F | > 64 | 64 (≈ 175 µM) | > 64 | > 64 | > 64 | > 64 | > 64
13 | CC(C)=Cc1cc(COc2ccc(F)c(C(N)=O)c2F)on1 | > 64 | 32 (≈ 104 µM) | > 64 | > 64 | > 64 | > 64 | > 64
14 | COc1cc(-c2cc(COc3ccc(F)c(C(N)=O)c3F)on2)cc(OC)c1OC | > 64 | > 64 | > 64 | > 64 | > 64 | > 64 | > 64
15 | COc1cccc(-c2cc(COc3ccc(F)c(C(N)=O)c3F)no2)c1 | > 64 | 64 (≈ 178 µM) | > 64 | > 64 | > 64 | > 64 | > 64
16 | NC(=O)c1c(F)ccc(OCc2cc(-c3ccc(-c4ccccc4)cc3)no2)c1F | > 64 | > 64 | > 64 | > 64 | > 64 | > 64 | > 64
17 | CCOc1cccc(-c2cc(COc3ccc(F)c(C(N)=O)c3F)on2)c1 | > 64 | 2 (≈ 5.34 µM) | > 64 | > 64 | > 64 | 16 (≈ 42.7 µM) | > 64
18 | NC(=O)c1c(F)ccc(OCc2cc(-c3ccc(F)cc3)no2)c1F | > 64 | 4 (≈ 11.5 µM) | > 64 | > 64 | > 64 | > 64 | > 64
19 | CCOc1ccc(-c2cc(COc3ccc(F)c(C(N)=O)c3F)no2)cc1 | > 64 | > 64 | > 64 | > 64 | > 64 | > 64 | > 64
20 | NC(=O)c1c(F)ccc(OCc2cc(-c3ccc(Cl)c(Cl)c3)no2)c1F | > 64 | 64 (≈ 160 µM) | > 64 | > 64 | > 64 | > 64 | > 64
21 | CCCCOc1ccc(-c2cc(COc3ccc(F)c(C(N)=O)c3F)on2)cc1 | > 64 | > 64 | > 64 | > 64 | > 64 | > 64 | > 64
22 | CCCOc1cccc(-c2cc(COc3ccc(F)c(C(N)=O)c3F)no2)c1 | > 64 | 4 (≈ 10.3 µM) | > 64 | > 64 | > 64 | > 64 | > 64
23 | CCOc1cccc(-c2cc(COc3ccc(F)c(C(N)=O)c3F)no2)c1 | > 64 | 32 (≈ 85.5 µM) | > 64 | > 64 | > 64 | > 64 | > 64
24 | Cc1ccc(-c2cc(COc3ccc(F)c(C(N)=O)c3F)on2)cc1 | > 64 | 8 (≈ 23.2 µM) | > 64 | > 64 | > 64 | > 64 | > 64
25 | Cc1ccc(-c2cc(COc3ccc(F)c(C(N)=O)c3F)no2)cc1 | > 64 | 64 (≈ 186 µM) | > 64 | > 64 | > 64 | > 64 | > 64
26 | NC(=O)c1c(F)ccc(OCc2cc(-c3ccc(Cl)cc3Cl)no2)c1F | 8 (≈ 20 µM) | 0.5 (≈ 1.25 µM) | > 64 | > 64 | > 64 | 0.5 (≈ 1.25 µM) | 4 (≈ 10 µM)
27 | Cc1cccc(-c2cc(COc3ccc(F)c(C(N)=O)c3F)no2)c1 | > 64 | 32 (≈ 92.9 µM) | > 64 | > 64 | > 64 | > 64 | > 64
28 | CC(C)c1ccc(-c2cc(COc3ccc(F)c(C(N)=O)c3F)on2)cc1 | > 64 | 2 (≈ 5.37 µM) | > 64 | > 64 | > 64 | 32 (≈ 85.9 µM) | > 64
29 | CCCOc1ccc(-c2cc(COc3ccc(F)c(C(N)=O)c3F)on2)cc1 | > 64 | 16 (≈ 41.2 µM) | > 64 | > 64 | > 64 | > 64 | > 64

Reference: ChEMBL document CHEMBL4257566, “Design, synthesis and structure-based optimization of novel isoxazole-containing benzamide derivatives as FtsZ modulators” (Eur J Med Chem, 2018)
